Laboratory results taken from PubChem BioAssay (NCI).
Values joined by “and” are separate entries in the source; they are usually repeats but may differ in a detail not shown here. Equal values may be shown once.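 48-hour exposure; five concentrations; linearly interpolated endpoints. GI50 marks 50% less growth. Definition used: TGI = concentration required for complete inhibition of growth.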

What was measured:
Experiment in all cases: NCI anticancer screen, dose series, 48 h
MALME-3M melanoma = system: MALME-3M melanoma
SNB-19 CNS = system: SNB-19 CNS
HOP-62 NSCLC = system: HOP-62 NSCLC
HCT-15 colon = system: HCT-15 colon
SNB-75 CNS = system: SNB-75 CNS
HT29 colon = system: HT29 colon
M14 melanoma = system: M14 melanoma
HS 578T breast = system: HS 578T breast
DU-145 prostate = system: DU-145 prostate
BT-549 breast = system: BT-549 breast

Structure (SMILES) | GI50 (MALME-3M melanoma) | TGI (MALME-3M melanoma) | TGI (SNB-19 CNS) | GI50 (HOP-62 NSCLC) | TGI (HOP-62 NSCLC) | TGI (HCT-15 colon) | TGI (SNB-75 CNS) | TGI (HT29 colon) | TGI (M14 melanoma) | GI50 (SNB-19 CNS) | GI50 (HS 578T breast) | TGI (HS 578T breast) | GI50 (M14 melanoma) | GI50 (HCT-15 colon) | GI50 (SNB-75 CNS) | GI50 (DU-145 prostate) | TGI (DU-145 prostate) | GI50 (BT-549 breast) | TGI (BT-549 breast) | GI50 (HT29 colon)
COc1cc(C(=O)N[C@H]2CCc3cc(OC)c(OC)c(OC)c3-c3ccc(SC)c(=O)cc32)cc(OC)c1OC | 0.0224 µM | 17.5 µM and 14.9 µM | > 100 µM | 0.47 µM | 25 µM and > 100 µM | 25 µM | 48.6 µM | > 100 µM |  |  |  |  |  |  |  |  |  |  |  | 
CC1(C)COC2C(N(Cc3ccccc3)Cc3ccccc3)C(=O)N21 (centres undefined) |  | > 100 µM | 71.8 µM |  | > 100 µM | > 100 µM | 41.2 µM | > 100 µM | 56.2 µM |  |  |  |  |  |  |  |  |  |  | 
O=C(NN1C(=O)CSC1c1cccc(Cl)c1)C(O)c1ccccc1 (centres undefined) | > 100 µM | > 100 µM | > 100 µM | > 100 µM | > 100 µM | > 100 µM | > 100 µM | > 100 µM | > 100 µM | > 100 µM | > 100 µM | > 100 µM | > 100 µM | 68.6 µM | 65 µM | 83.4 µM | > 100 µM | > 100 µM | > 100 µM | > 100 µM
CC(=O)c1ccc2c(c1)N(CCCN1CCN(CCO)CC1)c1ccccc1S2 | 1.75 µM | 3.62 µM | 6.97 µM | 1.99 µM | 4.77 µM | 5.01 µM | 3.51 µM | 3.75 µM | 3.6 µM | 2.44 µM | 1.66 µM | 4.52 µM | 1.88 µM | 1.99 µM | 1.53 µM | 4.55 µM | 15.8 µM | 3.38 µM | 11.9 µM | 1.7 µM
CC(=O)/C=C/c1ccc(Nc2c3ccccc3nc3occ(Cl)c23)cc1 | 6.48 µM | 24.9 µM | 30.2 µM | 19.5 µM | 61.3 µM | 11.7 µM | 59.4 µM | > 100 µM | 18.2 µM | 8.71 µM | 5.75 µM | > 100 µM | 4.49 µM | 2.09 µM | 18.3 µM |  |  | 4.9 µM | 22.7 µM | 2.58 µM
CCOC(=O)C1Cc2ccc3c4c(ccc(c24)C1)CC(C(=O)OCC)C3 |  | > 100 µM | > 100 µM |  | > 100 µM | > 100 µM | > 100 µM | > 100 µM | > 100 µM |  |  |  |  |  |  |  |  |  |  | 
COC(=O)c1cc(=O)nc2cc3cccccc3n12 |  | > 100 µM | > 100 µM |  | > 100 µM | > 100 µM | > 100 µM | > 100 µM | > 100 µM |  |  |  |  |  |  |  |  |  |  | 
CC1=Nc2ccccc2SC(c2c(Cl)cccc2Cl)C1 (centres undefined) |  | 3.29 µM | 2.7 µM |  | 3.76 µM | 2.57 µM | 5.67 µM | 1.57 µM | 3.07 µM |  |  |  |  |  |  |  |  |  |  | 
C=C(CN1CCc2c([nH]c3ccccc23)C1)c1ccc(C(=O)Nc2ccccc2N)cc1 |  |  | 30.8 µM | 4.08 µM | 20.8 µM | 28.1 µM |  |  | 14.7 µM | 10.7 µM | 4.75 µM | 23.3 µM | 4.13 µM | 3.5 µM |  | 3.85 µM | 13.9 µM | 5.29 µM | 17.7 µM | 
CC1CC2(S(=O)(=O)c3ccccc3)ON1CC2S(=O)(=O)c1ccccc1 (centres undefined) |  | > 100 µM | > 100 µM |  | > 100 µM | > 100 µM | > 100 µM | > 100 µM | > 100 µM |  |  |  |  |  |  |  |  |  |  | 
COC(=O)C(=O)C(CC(=O)Nc1ccc(C)cc1)C(=O)OC (centres undefined) |  | > 100 µM | > 100 µM |  | > 100 µM | > 100 µM |  | > 100 µM | > 100 µM |  |  |  |  |  |  |  |  |  |  | 
CN/N=C(/c1nc2ccc([N+](=O)[O-])cc2[nH]c1=O)C(O)c1ccc(C(O)/C(=N\NC)c2nc3ccc([N+](=O)[O-])cc3[nH]c2=O)cc1 (centres undefined) |  | > 100 µM | > 100 µM |  | > 100 µM | > 100 µM | > 100 µM | > 100 µM | > 100 µM |  |  |  |  |  |  |  |  |  |  | 
CCCC(=O)N[C@H]1CCc2cc(OC)c(OC)c(OC)c2-c2ccc(SC)c(=O)cc21 |  | > 100 µM | > 94.6 µM |  | > 91.2 µM | > 100 µM | 15.6 µM | 0.724 µM | 34.7 µM |  |  |  |  |  |  |  | < 0.01 µM |  | < 0.01 µM | 
CC(=O)c1cccc(NC(=O)C(=O)c2c(O)c3ccccc3oc2=O)c1 |  | > 100 µM | > 100 µM |  | > 100 µM | > 100 µM | > 100 µM | > 100 µM | > 100 µM |  |  | > 100 µM |  |  |  |  |  |  | > 100 µM | 
C#CCN(N=O)C(=O)ON1C(=O)CCC1=O |  | > 100 µM | > 100 µM |  | > 100 µM | > 100 µM | > 100 µM | > 100 µM | > 100 µM |  |  |  |  |  |  |  |  |  |  | 
COc1ccc(/C=C2\CCC(CCN(C)C)(C3=CCCC3)C2=O)cc1 (centres undefined) |  | 32.6 µM | 31.6 µM |  | 36 µM | 51.4 µM | 55.2 µM | 32.8 µM | 28.3 µM |  |  |  |  |  |  |  |  |  |  | 
O=C1c2ccccc2C(=O)C12CCc1ccccc12 |  | > 100 µM |  |  | > 100 µM | > 100 µM | > 100 µM | > 100 µM | > 100 µM |  |  |  |  |  |  |  |  |  |  | 
O=C(CC1(O)C(=O)Nc2ccc(F)cc21)c1ccc(C(=O)NCC2CCC3(CC2)OOC2(CCCCC2)OO3)cc1 (centres undefined) | 2.21 µM | 5.13 µM | 36.5 µM | 3.64 µM | 12.3 µM | 27.9 µM |  | 28 µM | 39.3 µM | 14.8 µM | 11.4 µM | 47.4 µM | 12.2 µM | 11.4 µM |  | 3.49 µM | 12.2 µM | 12.6 µM | 34.6 µM | 11.7 µM
COC(=O)C(C(=O)C(=O)Nc1ccc(C)cc1C)c1csc(-n2nc(-c3ccccc3)cc2-c2ccccc2)n1 (centres undefined) |  | > 100 µM | > 100 µM |  | > 100 µM | > 100 µM | 52.6 µM | > 100 µM | > 100 µM |  |  |  |  |  |  |  |  |  |  | 
Cn1c(=O)n(C)c2cc(CNCCNc3ccnc4cc(Cl)ccc34)ccc21 | 16.6 µM | 32.9 µM | > 100 µM | 39.4 µM | > 100 µM | > 100 µM | 35.6 µM | > 100 µM |  | 27.9 µM | 23.8 µM | 95 µM |  | 31 µM | 13.1 µM | 38.5 µM | > 100 µM | > 100 µM | > 100 µM | 21.1 µM
